Earlier results, collected in patent US20230374563A1, “Methods for Antimicrobial Susceptibility Testing” (MicrobeDX, Inc., priority 2017, published 2023).
Converted amounts (≈) assume the structure as drawn.

Tested on: bacteria
Settings: for CLSI MIC Cutoffs for (Urine) AST Determination I / MIC Criteria CLSI M100 (2018) I: Intermediate; for CLSI MIC Cutoffs for (Urine) AST Determination R / MIC Criteria CLSI M100 (2018) R: Resistant; for CLSI MIC Cutoffs for (Urine) AST Determination S / MIC Criteria CLSI M100 (2018) S: Susceptible; for MIC Criteria CLSI M100 (2018) S: cefazolin cutoffs for cases not identified as uncomplicated

| Compound | CLSI MIC Cutoffs for (Urine) AST Determination I | CLSI MIC Cutoffs for (Urine) AST Determination R | CLSI MIC Cutoffs for (Urine) AST Determination S | MIC Criteria CLSI M100 (2018) I [µg/mL] | MIC Criteria CLSI M100 (2018) R [µg/mL] | MIC Criteria CLSI M100 (2018) S [µg/mL] |
| --- | --- | --- | --- | --- | --- | --- |
| C[C@@H](O)[C@H]1C(=O)N2C(C(=O)O)=C(S[C@@H]3CN[C@H](C(=O)Nc4cccc(C(=O)O)c4)C3)[C@H](C)[C@H]12 [Ertapenem] | 1 µg/mL | ≥2 µg/mL | ≤0.5 µg/mL |  |  |  |
| C[C@@H]1O[C@@H]1P(=O)(O)O [Fosfomycin] | 128 µg/mL | ≥256 µg/mL | ≤64 µg/mL |  |  |  |
| CO/N=C(\C(=O)N[C@@H]1C(=O)N2C(C(=O)O)=C(CSc3nc(=O)c(=O)[nH]n3C)CS[C@H]12)c1csc(N)n1 [Ceftriaxone] | 2 µg/mL | ≥4 µg/mL | ≤1 µg/mL | 2 (≈ 3.61 µM) | ≥4 | ≤1 |
| Gentamicin | 8 µg/mL | ≥16 µg/mL | ≤4 µg/mL |  |  |  |
| Amoxicillin/Clavulanate [Amox/Clav] | 16/8 | ≥32/16 | ≤8/4 |  |  |  |
| C[C@@H](O)[C@H]1C(=O)N2C(C(=O)O)=C(S[C@@H]3CN[C@H](C(=O)N(C)C)C3)[C@H](C)[C@H]12 [Meropenem] | 2 µg/mL | ≥4 µg/mL | ≤1 µg/mL |  |  |  |
| Piperacillin/Tazobactam [Pip/Tazo] |  | ≥128/4 | ≤16/4 |  |  |  |
| CC1(C)S[C@@H]2[C@H](NC(=O)[C@H](N)c3ccccc3)C(=O)N2[C@H]1C(=O)O [Ampicillin] | 16 µg/mL | ≥32 µg/mL | <8 µg/mL | 16 (≈ 45.8 µM) | ≥32 | ≤8 |
| Trimethoprim/Sulfamethoxazole [TMP/SMX] |  | ≥4/76 | ≤2/38 |  |  |  |
| NCC[C@H](O)C(=O)N[C@@H]1C[C@H](N)[C@@H](O[C@H]2O[C@H](CN)[C@@H](O)[C@H](O)[C@H]2O)[C@H](O)[C@H]1O[C@H]1O[C@H](CO)[C@@H](O)[C@H](N)[C@H]1O [Amikacin] | 32 µg/mL | ≥64 µg/mL | ≤16 µg/mL |  |  |  |
